Biological target: human APJ receptor (Homo sapiens (Human), UniProt P35414)
Experiment: biochemical
Type: biochemical
Conditions: read-out: Activity hAPJ SPA EC50 IP
Summary of the method: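 Agonist-stimulated [35S]GTPγS (0.2 nM) binding was read by SPA after 90 min at room temperature. Buffer: 20 mM HEPES pH 7.5 with 5 mM MgCl2, 200 mM NaCl, 3 μM GDP, 0.1% BSA; membranes were from a stable human APJ CHO line. EC50 values are averages of independent runs, fitted by non-linear regression.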

human APJ receptor, sequence (P35414 whole entry): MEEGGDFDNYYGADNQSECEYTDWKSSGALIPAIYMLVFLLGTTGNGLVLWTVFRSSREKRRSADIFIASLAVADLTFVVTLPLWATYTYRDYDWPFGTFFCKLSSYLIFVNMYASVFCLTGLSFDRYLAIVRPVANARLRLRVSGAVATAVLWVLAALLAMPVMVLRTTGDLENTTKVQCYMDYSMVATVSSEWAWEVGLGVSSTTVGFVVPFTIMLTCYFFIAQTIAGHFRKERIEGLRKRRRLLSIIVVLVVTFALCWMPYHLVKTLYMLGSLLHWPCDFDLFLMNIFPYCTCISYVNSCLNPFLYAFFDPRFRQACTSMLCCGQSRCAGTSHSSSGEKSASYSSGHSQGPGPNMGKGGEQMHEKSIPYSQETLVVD

| Compound | EC50 [µM] |
| --- | --- |
| COc1cccc(-c2nnc(NS(=O)(=O)[C@@H](C)[C@H](C)c3ncc(C)cn3)n2-c2c(F)cccc2F)n1 [Example 784.0, (2S,3R)-N-(4-(2,6-difluorophenyl)-5-(6-methoxy-2-pyridinyl)-4H-1,2,4-triazol-3-yl)-3-(5-methyl-2-pyrimidinyl)-2-butanesulfonamide] | 0.0004 |
| Cc1cnc([C@@H](C)[C@H](C)S(=O)(=O)Nc2nnc(-c3ccccn3)n2-c2c(F)cccc2F)nc1 [Example 785.0, (2S,3R)-N-(4-(2,6-difluorophenyl)-5-(2-pyridinyl)-4H-1,2,4-triazol-3-yl)-3-(5-methyl-2-pyrimidinyl)-2-butanesulfonamide] | 0.0049 |
| COc1cccc(-c2nnc(NS(=O)(=O)[C@@H](C)[C@H](C)c3ncc(Cl)cn3)n2-c2c(F)cccc2F)n1 [Example 786.0, (2S,3R)-3-(5-chloro-2-pyrimidinyl)-N-(4-(2,6-difluorophenyl)-5-(6-methoxy-2-pyridinyl)-4H-1,2,4-triazol-3-yl)-2-butanesulfonamide] | 0.00016 |
| Cc1cccc(-c2nnc(NS(=O)(=O)[C@@H](C)[C@H](C)c3ncc(Cl)cn3)n2-c2c(F)cccc2F)n1 [Example 788.0, (2S,3R)-3-(5-chloro-2-pyrimidinyl)-N-(4-(2,6-difluorophenyl)-5-(6-methyl-2-pyridinyl)-4H-1,2,4-triazol-3-yl)-2-butanesulfonamide] | 0.00084 |
| COc1cccc(-c2nnc(NS(=O)(=O)[C@@H](C)[C@H](C)c3cnc(C)cn3)n2-c2c(F)cccc2F)n1 [Example 789.0, (2S,3R)-N-(4-(2,6-difluorophenyl)-5-(6-methoxy-2-pyridinyl)-4H-1,2,4-triazol-3-yl)-3-(5-methyl-2-pyrazinyl)-2-butanesulfonamide] | 0.0019 |
| Cc1cnc([C@@H](C)[C@H](C)S(=O)(=O)Nc2nnc(-c3cccc(C)n3)n2-c2c(F)cccc2F)cn1 [Example 790.0, (2S,3R)-N-(4-(2,6-difluorophenyl)-5-(6-methyl-2-pyridinyl)-4H-1,2,4-triazol-3-yl)-3-(5-methyl-2-pyrazinyl)-2-butanesulfonamide] | 0.02 |
| CNc1cccc(-c2nnc(NS(=O)(=O)[C@@H](C)[C@H](C)c3ncc(C)cn3)n2-c2c(F)cccc2F)n1 [Example 791.0, (2S,3R)-N-(4-(2,6-difluorophenyl)-5-(6-(methylamino)-2-pyridinyl)-4H-1,2,4-triazol-3-yl)-3-(5-methyl-2-pyrimidinyl)-2-butanesulfonamide] | 0.00063 |
| COc1cccc(-c2nnc(NS(=O)(=O)[C@H](C)[C@@H](OC)c3ncc(C)cn3)n2-c2c(F)cccc2F)n1 [Example 792.0, (1S,2R)-N-(4-(2,6-difluorophenyl)-5-(6-methoxy-2-pyridinyl)-4H-1,2,4-triazol-3-yl)-1-methoxy-1-(5-methyl-2-pyrimidinyl)-2-propanesulfonamide] | 0.051 |
| Cc1cnc([C@@H](C)[C@H](C)S(=O)(=O)Nc2nnc(-c3cccnc3)n2-c2c(F)cccc2F)nc1 [Example 793.0, (2S,3R)-N-(4-(2,6-difluorophenyl)-5-(3-pyridinyl)-4H-1,2,4-triazol-3-yl)-3-(5-methyl-2-pyrimidinyl)-2-butanesulfonamide] | 0.015 |
| COc1cnc([C@@H](C)[C@H](C)S(=O)(=O)Nc2nnc(-c3cncc(C)c3)n2-c2c(F)cccc2F)cn1 [Example 794.0, (2S,3R)-N-(4-(2,6-difluorophenyl)-5-(5-methyl-3-pyridinyl)-4H-1,2,4-triazol-3-yl)-3-(5-methoxy-2-pyrazinyl)-2-butanesulfonamide] | 0.0066 |
| Cc1cncc(-c2nnc(NS(=O)(=O)[C@@H](C)[C@H](C)c3cnc(C)cn3)n2-c2c(F)cccc2F)c1 [Example 795.0, (2S,3R)-N-(4-(2,6-difluorophenyl)-5-(5-methyl-3-pyridinyl)-4H-1,2,4-triazol-3-yl)-3-(5-methyl-2-pyrazinyl)-2-butanesulfonamide] | 0.03 |
| Cc1cncc(-c2nnc(NS(=O)(=O)[C@@H](C)[C@H](C)c3ncc(Cl)cn3)n2-c2c(F)cccc2F)c1 [Example 796.0, (2S,3R)-3-(5-chloro-2-pyrimidinyl)-N-(4-(2,6-difluorophenyl)-5-(5-methyl-3-pyridinyl)-4H-1,2,4-triazol-3-yl)-2-butanesulfonamide] | 0.0011 |
| COc1ncnc(OC)c1-n1c(NS(=O)(=O)[C@@H](C)[C@H](C)c2cnc(C)cn2)nnc1-c1cccnc1 [Example 806.0, (2S,3R)-N-(4-(4,6-dimethoxy-5-pyrimidinyl)-5-(3-pyridinyl)-4H-1,2,4-triazol-3-yl)-3-(5-methyl-2-pyrazinyl)-2-butanesulfonamide] | 0.019 |
| C[C@H](c1ccc(Cl)cn1)[C@H](C)S(=O)(=O)Nc1nnc(-c2cccnc2)n1-c1c(O)nc[nH]c1=O [Example 810.0, (2S,3R)-3-(5-chloro-2-pyridinyl)-N-(4-(4-hydroxy-6-oxo-1,6-dihydro-5-pyrimidinyl)-5-(3-pyridinyl)-4H-1,2,4-triazol-3-yl)-2-butanesulfonamide] | 0.77 |
| COc1ncnc(OC)c1-n1c(NS(=O)(=O)[C@@H](C)[C@@H](OC(C)C)c2ncc(C)cn2)nnc1-c1cncc(C)c1 [Example 829.0, (1S,2S)-N-(4-(4,6-dimethoxy-5-pyrimidinyl)-5-(5-methyl-3-pyridinyl)-4H-1,2,4-triazol-3-yl)-1-(1-methylethoxy)-1-(5-methyl-2-pyrimidinyl)-2-propanesulfonamide] | 0.0095 |
| COc1cccc(-c2nnc(NS(=O)(=O)[C@@H]3CCCN(c4ncc(Cl)cn4)C3)n2-c2c(OC)ncnc2OC)n1 [Example 831.0, (3R)-1-(5-chloro-2-pyrimidinyl)-N-(4-(4,6-dimethoxy-5-pyrimidinyl)-5-(6-methoxy-2-pyridinyl)-4H-1,2,4-triazol-3-yl)-3-piperidinesulfonamide, (3S)-1-(5-chloro-2-pyrimidinyl)-N-(4-(4,6-dimethoxy-5-pyrimidinyl)-5-(6-methoxy-2-pyridinyl)-4H-1,2,4-triazol-3-yl)-3-piperidinesulfonamide] | 0.00089 |
| COc1cccc(-c2nnc(NS(=O)(=O)CC3CC3)n2-c2c(OC)cccc2OC)n1 [Example 832.0, 1-cyclopropyl-N-(4-(2,6-dimethoxyphenyl)-5-(6-methoxy-2-pyridinyl)-4H-1,2,4-triazol-3-yl)methanesulfonamide] | 0.11 |
| COc1cccc(-c2nnc(NS(=O)(=O)[C@@H](C)[C@H](C)c3ncc(Cl)cn3)n2C2CCOCC2)n1 [Example 835.0, (2S,3R)-3-(5-chloro-2-pyrimidinyl)-N-(5-(6-methoxy-2-pyridinyl)-4-(tetrahydro-2H-pyran-4-yl)-4H-1,2,4-triazol-3-yl)-2-butanesulfonamide] | 0.013 |
| COc1cccc(-c2nnc(NS(=O)(=O)[C@@H](C)[C@H](OC)c3ncc(Cl)cn3)n2C2CCOCC2)n1 [Example 836.0, (1R,2S)-1-(5-chloro-2-pyrimidinyl)-1-methoxy-N-(5-(6-methoxy-2-pyridinyl)-4-(tetrahydro-2H-pyran-4-yl)-4H-1,2,4-triazol-3-yl)-2-propanesulfonamide] | 0.0029 |
| COc1cccc(-c2nnc(NS(=O)(=O)[C@@H](C)[C@@H](OC(C)C)c3ncc(C)cn3)n2C2CCOCC2)n1 [Example 837.0, (1S,2S)-N-(5-(6-methoxy-2-pyridinyl)-4-(tetrahydro-2H-pyran-4-yl)-4H-1,2,4-triazol-3-yl)-1-(1-methylethoxy)-1-(5-methyl-2-pyrimidinyl)-2-propanesulfonamide] | 0.0051 |
| COc1cccc(-c2nnc(NS(=O)(=O)[C@@H](C)[C@H](C)c3ccc(Cl)cn3)n2C2CCOCC2)n1 [Example 840.0, (2S,3R)-3-(5-chloro-2-pyridinyl)-N-(5-(6-methoxy-2-pyridinyl)-4-(tetrahydro-2H-pyran-4-yl)-4H-1,2,4-triazol-3-yl)-2-butanesulfonamide] | 0.013 |
| COc1cccc(-c2nnc(NS(=O)(=O)[C@@H](C)[C@H](OC)c3ccc(Cl)cn3)n2C2CCOCC2)n1 [Example 841.0, (1R,2S)-1-(5-chloro-2-pyridinyl)-1-methoxy-N-(5-(6-methoxy-2-pyridinyl)-4-(tetrahydro-2H-pyran-4-yl)-4H-1,2,4-triazol-3-yl)-2-propanesulfonamide] | 0.0086 |
| COc1cnc([C@@H](C)[C@H](C)S(=O)(=O)Nc2nnc(-c3cccc(OC)n3)n2C2CCOCC2)nc1 [Example 842.0, (2S,3R)-N-(5-(6-methoxy-2-pyridinyl)-4-(tetrahydro-2H-pyran-4-yl)-4H-1,2,4-triazol-3-yl)-3-(5-methoxy-2-pyrimidinyl)-2-butanesulfonamide] | 0.14 |
| COc1cccc(-c2nnc(NS(=O)(=O)[C@@H](C)[C@H](C)c3cnc(C)cn3)n2C2CCOCC2)n1 [Example 843.0, (2S,3R)-N-(5-(6-methoxy-2-pyridinyl)-4-(tetrahydro-2H-pyran-4-yl)-4H-1,2,4-triazol-3-yl)-3-(5-methyl-2-pyrazinyl)-2-butanesulfonamide] | 0.97 |
| COc1cnc([C@@H](C)[C@H](C)S(=O)(=O)Nc2nnc(-c3cccc(OC)n3)n2C2CCOCC2)cn1 [Example 844.0, (2S,3R)-3-(5-methoxy-2-pyrazinyl)-N-(5-(6-methoxy-2-pyridinyl)-4-(tetrahydro-2H-pyran-4-yl)-4H-1,2,4-triazol-3-yl)-2-butanesulfonamide] | 0.086 |
| (2S)-N-(4-(2,6-dimethoxyphenyl)-5-(5-methoxy-2-pyridinyl)-4H-1,2,4-triazol-3-yl)-1-(5-fluoro-2-pyrimidinyl)-2-propanesulfonamide and (2R)-N-(4-(2,6-dimethoxyphenyl)-5-(5-methoxy-2-pyridinyl)-4H-1,2,4-triazol-3-yl)-1-(5-fluoro-2-pyrimidinyl)-2-propanesulfonamide [Example 153.0] | 0.16 |

Source: US10058550B2, “Methods of treating heart failure” (priority 2015, dated 2018)
